Experimental data reported in ChEMBL document CHEMBL1139949, “Structure-activity relationship, kinetic mechanism, and selectivity for a new class of ubiquitin C-terminal hydrolase-L1 (UCH-L1) inhibitors” (Bioorg Med Chem Lett, 2007).
Activity calls are given as the source filed them. No cut-off for these calls is given here.

Tests used:
Papain (Carica papaya) = biological target: T1, Papain (Carica papaya) (UniProt P00784); test: Inhibition of papain at 40 uM
T1 sequence (whole entry): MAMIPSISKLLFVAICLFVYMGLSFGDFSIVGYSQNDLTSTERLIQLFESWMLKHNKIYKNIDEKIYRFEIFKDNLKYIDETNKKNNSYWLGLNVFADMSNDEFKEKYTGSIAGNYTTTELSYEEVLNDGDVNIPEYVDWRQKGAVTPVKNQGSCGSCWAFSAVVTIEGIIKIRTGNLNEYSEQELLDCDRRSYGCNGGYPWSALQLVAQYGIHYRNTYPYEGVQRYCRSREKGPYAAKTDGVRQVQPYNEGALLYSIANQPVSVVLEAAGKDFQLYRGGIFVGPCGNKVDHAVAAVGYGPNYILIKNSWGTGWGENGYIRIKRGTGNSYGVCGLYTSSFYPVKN

[1] = biological target: T2, Ubiquitin carboxyl-terminal hydrolase isozyme L3 (Homo sapiens) (UniProt P15374); test: Inhibition of UCHL3 at 20 uM
T2 sequence (whole entry): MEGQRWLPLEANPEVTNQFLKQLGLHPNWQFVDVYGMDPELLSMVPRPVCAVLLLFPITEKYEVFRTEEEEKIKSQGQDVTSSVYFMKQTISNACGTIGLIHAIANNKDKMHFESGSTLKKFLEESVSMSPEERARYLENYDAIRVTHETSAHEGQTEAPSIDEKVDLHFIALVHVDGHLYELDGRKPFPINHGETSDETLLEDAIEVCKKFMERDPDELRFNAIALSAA

[2] = biological target: T3, Ubiquitin carboxyl-terminal hydrolase 5 (Homo sapiens) (UniProt P45974); test: Inhibition of isopeptidase T at 40 uM
T3 sequence (whole entry): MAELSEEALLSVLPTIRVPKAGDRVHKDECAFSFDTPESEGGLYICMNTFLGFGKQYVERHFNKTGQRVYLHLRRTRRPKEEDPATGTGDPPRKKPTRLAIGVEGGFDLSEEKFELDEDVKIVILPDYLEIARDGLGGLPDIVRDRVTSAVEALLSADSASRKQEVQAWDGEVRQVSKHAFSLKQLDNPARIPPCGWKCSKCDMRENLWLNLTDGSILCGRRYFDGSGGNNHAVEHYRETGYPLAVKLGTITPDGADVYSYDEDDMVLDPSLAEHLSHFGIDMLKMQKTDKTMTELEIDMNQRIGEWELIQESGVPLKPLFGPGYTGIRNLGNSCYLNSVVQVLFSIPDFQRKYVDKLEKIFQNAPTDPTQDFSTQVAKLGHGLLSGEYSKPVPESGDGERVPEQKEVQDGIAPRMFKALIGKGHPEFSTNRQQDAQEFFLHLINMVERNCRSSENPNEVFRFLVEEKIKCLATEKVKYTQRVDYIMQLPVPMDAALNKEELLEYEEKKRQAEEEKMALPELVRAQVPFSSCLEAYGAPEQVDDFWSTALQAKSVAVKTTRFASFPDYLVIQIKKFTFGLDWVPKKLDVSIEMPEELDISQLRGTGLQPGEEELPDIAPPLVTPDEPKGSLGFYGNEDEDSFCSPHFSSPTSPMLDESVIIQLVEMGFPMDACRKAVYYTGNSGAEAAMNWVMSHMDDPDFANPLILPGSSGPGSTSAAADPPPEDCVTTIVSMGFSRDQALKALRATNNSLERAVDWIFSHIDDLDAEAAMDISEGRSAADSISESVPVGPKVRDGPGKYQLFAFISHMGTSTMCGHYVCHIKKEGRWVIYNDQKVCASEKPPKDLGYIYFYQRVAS

[3] = biological target: T4, Protein-glutamine gamma-glutamyltransferase (Homo sapiens) (UniProt P21980); test: Inhibition of TGase 2 at 40 uM
T4 sequence (whole entry): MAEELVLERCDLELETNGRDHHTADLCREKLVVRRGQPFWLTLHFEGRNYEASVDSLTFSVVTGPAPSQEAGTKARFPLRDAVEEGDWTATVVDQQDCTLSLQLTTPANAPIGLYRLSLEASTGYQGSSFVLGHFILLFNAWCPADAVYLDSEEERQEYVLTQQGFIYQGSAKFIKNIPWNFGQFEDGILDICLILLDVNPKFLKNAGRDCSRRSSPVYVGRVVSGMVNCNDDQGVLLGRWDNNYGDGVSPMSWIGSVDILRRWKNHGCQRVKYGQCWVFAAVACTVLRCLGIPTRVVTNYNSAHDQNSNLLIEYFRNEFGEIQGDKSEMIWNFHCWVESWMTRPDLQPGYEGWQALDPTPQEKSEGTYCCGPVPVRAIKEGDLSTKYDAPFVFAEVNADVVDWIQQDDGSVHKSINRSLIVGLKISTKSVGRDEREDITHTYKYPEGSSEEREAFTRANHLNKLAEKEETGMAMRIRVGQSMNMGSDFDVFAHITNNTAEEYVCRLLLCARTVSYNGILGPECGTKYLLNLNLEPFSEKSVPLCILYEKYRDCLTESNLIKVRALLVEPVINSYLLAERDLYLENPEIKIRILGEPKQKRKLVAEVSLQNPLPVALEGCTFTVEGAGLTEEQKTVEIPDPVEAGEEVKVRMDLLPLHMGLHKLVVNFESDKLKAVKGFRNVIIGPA

Caspase-3 (Homo sapiens) = biological target: T5, Caspase-3 (Homo sapiens) (UniProt P42574); test: Inhibition of caspase 3 at 40 uM
T5 sequence (whole entry): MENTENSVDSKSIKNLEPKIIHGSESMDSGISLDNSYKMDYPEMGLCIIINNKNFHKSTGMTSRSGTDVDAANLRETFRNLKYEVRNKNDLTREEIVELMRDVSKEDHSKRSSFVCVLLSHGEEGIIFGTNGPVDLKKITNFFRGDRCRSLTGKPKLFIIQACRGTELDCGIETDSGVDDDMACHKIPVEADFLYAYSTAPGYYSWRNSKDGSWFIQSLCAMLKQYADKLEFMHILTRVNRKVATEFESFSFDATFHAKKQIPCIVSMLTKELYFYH

N2a = test: Cytotoxicity against serum-starved mouse N2A cells at 0.1 mM; type: cell-based; conditions: 100 µM

SMILES | Activity (Papain (Carica papaya)) | inhibition [1] | Activity [2] | Activity [3] | Activity [1] | Activity (Caspase-3 (Homo sapiens)) | Activity (N2a)
Nc1c(C(=O)c2ccc(Cl)cc2)sc2[nH]c(=O)c(C(=O)O)cc12 | inactive | – | – | – | – | – | –
Cc1ccc(C(=O)c2sc3[nH]c(=O)c(C(=O)O)cc3c2N)cc1 | inactive | 30% | inactive | – | – | – | –
Cl.Nc1c(C(=O)c2ccccc2)sc2[nH]c(=O)c(C(=O)O)cc12 | inactive | – | – | inactive | inactive | inactive | Non-toxic
